Measured values published in publication PMC10281321, “Discovery of an effective anti-inflammatory agent for inhibiting the activation of NF-κB” (Journal of Enzyme Inhibition and Medicinal Chemistry, 2023).

Tests used:
Assay type in all cases: cell-based
[1] = Cytotoxicity by MTT assay
[2] = test system: LPS-stimulated RAW264.7 cells; assay: NO release inhibition in LPS-stimulated RAW264.7 cells (Griess reagent); settings: for IC50: Mus musculus, LPS-stimulated RAW264.7 cells, Griess Reagent; for anti-inflammatory activity (in words): SAR summary covering NO release and NF-κB reporter inhibition
Method: After incubated for 24 hours, cells were treated with tested compounds for different
concentrations(3.125,6.25,12.5,25 and 50μM) for 1 h, and then treated with 1 μg/mL LPS
for further 24 h. The supernatants were collected and NO level was measured using
Griess reagent (Beyotime, China). […]

NF-κB = NF-κB transcriptional activity dual-luciferase reporter assay, TNF-α stimulated; settings: Homo sapiens, HEK-293T, HEK293T cells transfected with NF-κB reporter plasmid, stimulated by TNF-α
Method: 4.5. NF-κB transcriptional activity assay
HEK293T cells were seeded into 96 well plate at a density of 1×10^5 cells per well. After incubated for 24 hours, cells were transfected with NF-κB reporter plasmid at 100 ng/well using lip2000.Six hours later, the medium was replaced by fresh medium containing tested compounds with different concentrations. Then incubated for another hour, TNF-α was added for a final concentration at 10 ng/mL.12 hours later, the cell lysate was collected and the RLU was measured by microplate reader. […]

Structure (SMILES): Cc1ccc(S(=O)(=O)/C=C/C#N)cc1 [Bay11-7082, reference compound]
- IC50 [1]: 22.7 ± 3.4 µM
- IC50 [2]: 2.1 ± 0.7 µM
- IC50 (NF-κB): 0.0915 ± 0.0103 µM

Structure (SMILES): CCc1ccc(-c2cnc(N)c(C(=O)Nc3ccccc3)c2)cc1 [Compound 6]
- IC50 [1]: > 25 µM
- IC50 [2]: 19.7 ± 2.6 µM
- IC50 (NF-κB): 1.62 ± 0.0132 µM

Structure (SMILES): CCc1ccc(-c2cnc(N)c(C(=O)Nc3ccc(C)cc3)c2)cc1 [Compound 7]
- IC50 [1]: > 25 µM
- IC50 [2]: 26.7 ± 3.2 µM
- IC50 (NF-κB): > 2 µM

Structure (SMILES): CCc1ccc(-c2cnc(N)c(C(=O)Nc3cccc(C)c3)c2)cc1 [Compound 8]
- IC50 [1]: > 25 µM
- IC50 [2]: 15.2 ± 2.8 µM
- IC50 (NF-κB): 1.329 ± 0.0115 µM

Structure (SMILES): CCc1ccc(-c2cnc(N)c(C(=O)Nc3ccccc3C)c2)cc1 [Compound 9]
- IC50 [1]: > 25 µM
- IC50 [2]: 30.2 ± 4 µM
- IC50 (NF-κB): > 2 µM

Structure (SMILES): CCc1ccc(-c2cnc(N)c(C(=O)Nc3ccc(N)cc3)c2)cc1 [Compound 10]
- IC50 [1]: 7.3 ± 1.2 µM
- IC50 [2]: 2.3 ± 0.9 µM
- IC50 (NF-κB): 0.42 ± 0.0104 µM

Structure (SMILES): CCc1ccc(-c2cnc(N)c(C(=O)Nc3cccc(N)c3)c2)cc1 [Compound 11]
- IC50 [1]: > 25 µM
- IC50 [2]: 1.7 ± 0.9 µM
- IC50 (NF-κB): 0.0958 ± 0.0062 µM

Structure (SMILES): CCc1ccc(-c2cnc(N)c(C(=O)Nc3ccccc3N)c2)cc1 [Compound 12]
- IC50 [1]: 4.7 ± 1 µM
- IC50 [2]: 0.9 ± 0.5 µM
- IC50 (NF-κB): 0.571 ± 0.0093 µM

Structure (SMILES): CCc1ccc(-c2cnc(N)c(C(=O)Nc3ccc(NC(C)=O)cc3)c2)cc1 [Compound 13]
- IC50 [1]: > 25 µM
- cytotoxicity (in words) [1]: cytotoxicity is reduced
- IC50 [2]: 10.2 ± 5.4 µM
- IC50 (NF-κB): 0.7139 ± 0.0042 µM

Structure (SMILES): CCc1ccc(-c2cnc(N)c(C(=O)Nc3cccc(NC(C)=O)c3)c2)cc1 [Compound 14]
- IC50 [1]: > 25 µM
- IC50 [2]: 3.2 ± 1.1 µM
- anti-inflammatory activity (in words) [2]: strong anti-inflammatory activity
- IC50 (NF-κB): 0.167 ± 0.0084 µM

Structure (SMILES): CCc1ccc(-c2cnc(N)c(C(=O)Nc3ccccc3NC(C)=O)c2)cc1 [Compound 15]
- IC50 [1]: 3.2 ± 0.8 µM
- IC50 [2]: 1.1 ± 0.4 µM
- anti-inflammatory activity (in words) [2]: strong anti-inflammatory activity
- IC50 (NF-κB): 0.532 ± 0.0135 µM

Structure (SMILES): CCc1ccc(-c2cnc(N)c(C(=O)Nc3ccc(F)cc3)c2)cc1 [Compound 16]
- IC50 [1]: > 25 µM
- IC50 [2]: > 50 µM
- IC50 (NF-κB): > 2 µM

Structure (SMILES): CCc1ccc(-c2cnc(N)c(C(=O)Nc3ccc(Cl)cc3)c2)cc1 [Compound 17]
- IC50 [1]: > 25 µM
- IC50 [2]: > 50 µM
- IC50 (NF-κB): > 2 µM

Structure (SMILES): CCc1ccc(-c2cnc(N)c(C(=O)Nc3ccc(OC(F)(F)F)cc3)c2)cc1 [Compound 18]
- IC50 [1]: > 25 µM
- IC50 [2]: > 50 µM
- anti-inflammatory activity (in words) [2]: loss of anti-inflammatory activity
- IC50 (NF-κB): > 2 µM

Structure (SMILES): CCc1ccc(NC(=O)c2cc(-c3ccc(CC)cc3)cnc2N)cc1 [Compound 19]
- IC50 [1]: > 25 µM
- IC50 [2]: 28.5 ± 2.1 µM
- IC50 (NF-κB): > 2 µM

Structure (SMILES): CCc1ccc(-c2cnc(N)c(C(=O)Nc3ccc(OC)cc3)c2)cc1 [Compound 20]
- IC50 [1]: > 25 µM
- IC50 [2]: 22 ± 0.8 µM
- IC50 (NF-κB): > 2 µM

Structure (SMILES): CCc1ccc(-c2cnc(N)c(C(=O)Nc3ccc(C(C)C)cc3)c2)cc1 [Compound 21]
- IC50 [1]: > 25 µM
- IC50 [2]: > 50 µM
- IC50 (NF-κB): > 2 µM

Structure (SMILES): CCc1ccc(-c2cnc(N)c(C(=O)Nc3ccc(C(N)=O)cc3)c2)cc1 [Compound 22]
- IC50 [1]: > 25 µM
- IC50 [2]: > 50 µM
- anti-inflammatory activity (in words) [2]: loss of anti-inflammatory activity
- IC50 (NF-κB): > 2 µM

Structure (SMILES): CCc1ccc(-c2cccc(C(=O)Nc3ccc(NC(C)=O)cc3)c2)cc1 [Compound 23]
- IC50 [1]: > 25 µM
- IC50 [2]: 32.7 ± 3.4 µM
- IC50 (NF-κB): > 2 µM

Structure (SMILES): CCc1ccc(-c2cc(C(=O)Nc3ccc(NC(C)=O)cc3)ccn2)cc1 [Compound 24]
- IC50 [1]: > 25 µM
- IC50 [2]: 14.1 ± 1.7 µM
- IC50 (NF-κB): 0.763 ± 0.0151 µM

Structure (SMILES): CCc1ccc(-c2cncc(C(=O)Nc3ccc(NC(C)=O)cc3)c2)cc1 [Compound 25]
- IC50 [1]: > 25 µM
- IC50 [2]: 25.4 ± 3.1 µM
- IC50 (NF-κB): 1.33 ± 0.0163 µM

Structure (SMILES): CCc1ccc(-c2ccnc(C(=O)Nc3ccc(NC(C)=O)cc3)c2)cc1 [Compound 26]
- IC50 [1]: > 25 µM
- IC50 [2]: 19.5 ± 3.2 µM
- IC50 (NF-κB): 1.96 ± 0.0535 µM

Structure (SMILES): CCc1ccc(-c2cc(C(=O)Nc3ccc(NC(C)=O)cc3)cnc2N)cc1 [Compound 27]
- IC50 [1]: > 25 µM
- IC50 [2]: 21.5 ± 2.6 µM
- IC50 (NF-κB): 1.11 ± 0.0124 µM

Structure (SMILES): CC(=O)Nc1ccc(NC(=O)c2cc(-c3ccc(C)cc3)cnc2N)cc1 [Compound 28]
- IC50 [1]: > 50 µM
- IC50 [2]: 24.2 ± 4.1 µM
- anti-inflammatory activity (in words) [2]: anti-inflammatory activity decreased significantly
- IC50 (NF-κB): > 2 µM

Structure (SMILES): CC(=O)Nc1ccc(NC(=O)c2cc(-c3cccc(C)c3)cnc2N)cc1 [Compound 29]
- IC50 [1]: > 50 µM
- IC50 [2]: > 50 µM
- anti-inflammatory activity (in words) [2]: anti-inflammatory activity decreased significantly
- IC50 (NF-κB): > 2 µM

Structure (SMILES): CC(=O)Nc1ccc(NC(=O)c2cc(-c3ccc(S(C)(=O)=O)cc3)cnc2N)cc1 [Compound 30]
- IC50 [1]: > 50 µM
- IC50 [2]: 17.8 ± 2.7 µM
- IC50 (NF-κB): 1.04 ± 0.0175 µM

Structure (SMILES): COc1ccc(-c2cnc(N)c(C(=O)Nc3ccc(NC(C)=O)cc3)c2)cc1 [Compound 31]
- IC50 [1]: > 50 µM
- IC50 [2]: > 50 µM
- IC50 (NF-κB): > 2 µM

Structure (SMILES): COc1cccc(-c2cnc(N)c(C(=O)Nc3ccc(NC(C)=O)cc3)c2)c1 [Compound 32]
- IC50 [1]: > 50 µM
- IC50 [2]: > 50 µM
- IC50 (NF-κB): > 2 µM

Structure (SMILES): COc1ccccc1-c1cnc(N)c(C(=O)Nc2ccc(NC(C)=O)cc2)c1 [Compound 33]
- IC50 [1]: > 50 µM
- IC50 [2]: > 50 µM
- IC50 (NF-κB): > 2 µM

Structure (SMILES): COc1ccc(-c2cnc(N)c(C(=O)Nc3ccc(NC(C)=O)cc3)c2)c(OC)c1OC [Compound 34]
- IC50 [1]: > 50 µM
- IC50 [2]: > 50 µM
- IC50 (NF-κB): > 2 µM

Structure (SMILES): CC(=O)Nc1ccc(NC(=O)c2cc(-c3ccc(Cl)cc3)cnc2N)cc1 [Compound 35]
- IC50 [1]: > 50 µM
- IC50 [2]: 4.2 ± 0.8 µM
- anti-inflammatory activity (in words) [2]: significantly improved the anti-inflammatory activity
- IC50 (NF-κB): 0.207 ± 0.013 µM

Structure (SMILES): CC(=O)Nc1ccc(NC(=O)c2cc(-c3cccc(Cl)c3)cnc2N)cc1 [Compound 36]
- IC50 [1]: > 50 µM
- IC50 [2]: > 50 µM
- IC50 (NF-κB): > 2 µM

Structure (SMILES): CC(=O)Nc1ccc(NC(=O)c2cc(-c3ccccc3Cl)cnc2N)cc1 [Compound 37]
- IC50 [1]: > 50 µM
- IC50 [2]: > 50 µM
- IC50 (NF-κB): > 2 µM

Structure (SMILES): CC(=O)Nc1ccc(NC(=O)c2cc(-c3ccc(F)cc3)cnc2N)cc1 [Compound 38]
- IC50 [1]: > 50 µM
- IC50 [2]: 13.7 ± 1.8 µM
- IC50 (NF-κB): 0.827 ± 0.0186 µM

Structure (SMILES): CC(=O)Nc1ccc(NC(=O)c2cc(-c3cccc(F)c3)cnc2N)cc1 [Compound 39]
- IC50 [1]: > 50 µM
- IC50 [2]: > 50 µM
- IC50 (NF-κB): > 2 µM

Structure (SMILES): CC(=O)Nc1ccc(NC(=O)c2cc(-c3ccc(C(F)(F)F)cc3)cnc2N)cc1 [Compound 40]
- IC50 [1]: > 50 µM
- IC50 [2]: 26.5 ± 3 µM
- IC50 (NF-κB): > 2 µM

Structure (SMILES): CC(=O)Nc1ccc(NC(=O)c2cc(-c3cccc(C(F)(F)F)c3)cnc2N)cc1 [Compound 41]
- IC50 [1]: > 50 µM
- IC50 [2]: 8.4 ± 1.7 µM
- IC50 (NF-κB): 0.307 ± 0.0214 µM

Structure (SMILES): CC(=O)Nc1ccc(NC(=O)c2cc(-c3ccccc3C(F)(F)F)cnc2N)cc1 [Compound 42]
- IC50 [1]: > 50 µM
- IC50 [2]: 14.6 ± 2.3 µM
- IC50 (NF-κB): 1.01 ± 0.0184 µM

Structure (SMILES): CC(=O)Nc1ccc(NC(=O)c2cc(-c3ccc(O)cc3)cnc2N)cc1 [Compound 43]
- IC50 [1]: > 50 µM
- IC50 [2]: > 50 µM
- IC50 (NF-κB): > 2 µM

Structure (SMILES): CC(=O)Nc1ccc(NC(=O)c2cc(-c3cccc(O)c3)cnc2N)cc1 [Compound 44]
- IC50 [1]: > 50 µM
- IC50 [2]: > 50 µM
- IC50 (NF-κB): > 2 µM

Structure (SMILES): CC(=O)Nc1ccc(NC(=O)c2cc(-c3ccccc3O)cnc2N)cc1 [Compound 45]
- IC50 [1]: > 50 µM
- IC50 [2]: > 50 µM
- IC50 (NF-κB): > 2 µM

Structure (SMILES): CC(=O)Nc1ccc(NC(=O)c2cc(-c3ccc(C#N)cc3)cnc2N)cc1 [Compound 46]
- IC50 [1]: > 50 µM
- IC50 [2]: > 50 µM
- IC50 (NF-κB): > 2 µM

Structure (SMILES): CC(=O)Nc1ccc(NC(=O)c2cc(-c3cccc(C#N)c3)cnc2N)cc1 [Compound 47]
- IC50 [1]: > 50 µM
- IC50 [2]: 28.9 ± 2.1 µM
- IC50 (NF-κB): > 2 µM

Structure (SMILES): CC(=O)Nc1ccc(NC(=O)c2cc(-c3ccccc3C#N)cnc2N)cc1 [Compound 48]
- IC50 [1]: > 50 µM
- IC50 [2]: > 50 µM
- IC50 (NF-κB): > 2 µM

Structure (SMILES): CC(=O)Nc1ccc(NC(=O)c2cc(-c3ccc(C=O)c(C)c3)cnc2N)cc1 [Compound 49]
- IC50 [1]: > 50 µM
- IC50 [2]: > 50 µM
- IC50 (NF-κB): > 2 µM

Structure (SMILES): CC(=O)Nc1ccc(NC(=O)c2cc(-c3ccc(F)c(C)c3)cnc2N)cc1 [Compound 50]
- IC50 [1]: > 50 µM
- IC50 [2]: 8.6 ± 1.9 µM
- anti-inflammatory activity (in words) [2]: superior anti-inflammatory activity
- IC50 (NF-κB): 0.577 ± 0.0216 µM

Structure (SMILES): COc1ccc(-c2cnc(N)c(C(=O)Nc3ccc(NC(C)=O)cc3)c2)c(F)c1 [Compound 52]
- IC50 [1]: > 50 µM
- IC50 [2]: > 50 µM
- IC50 (NF-κB): 1.42 ± 0.0247 µM
